Data from article doi:10.1101/2025.07.30.667614, “Steric control of signaling bias in the immunometabolic receptor GPR84” (bioRxiv, 2025).

Assays:
GPR84 Y332F = molecular target: T1, GPR84 Y332F (Homo sapiens, UniProt Q9NQS5, Y332F); assay: BRET β-arrestin-1 recruitment assay, HEK293T cells; assay type: cell-based
T1 construct: FLAG (N); Gαi2-Cys352Ile (fusion partner) (C); expressed in transfected cells
Experimental: As a control, cells were transfected with 100:1 ratio of empty plasmid and the appropriate arrestin isoform fused to nano-luciferase. After 24 h, cells were seeded at 50,000 cells per well in poly-D-lysine-coated white 96-well plates and incubated at 37°C overnight. After 24 h, cells were washed twice with Hank’s balanced salt solution (HBSS), pH 7.4, and 10 μl/well of the nano-luciferase substrate coelenterazine-h (Nanolight Technologies) was added to a final concentration of 5 μM. Cells were incubated in the dark for 10 min at 37°C, after which 10 μl/well of the agonist compound was added, and the cells were incubated for another 5 minutes. 15 min after coelenterazine-h addition, reading of emission signals were performed on a PHERAstar FS plate reader (BMG Labtech) at 475 and 535 nm, representing nano-luciferase and eYFP emission signals, respectively. The net bioluminescence resonance energy transfer (BRET) ratio (mBRET) was calculated as follows: mBRET=(BRET^sample−BRET^control)*1000whereBRET=Emission^535nm/Emission^475nm

[1] = molecular target: Leu336Ala GPR84 (GPR84-Gi2 fusion protein) (Homo sapiens, UniProt Q9NQS5, L336A); assay: Competition binding assay with orthosteric antagonist [3H]140
Experimental: Binding was initiated by the addition of 5 μg membrane protein generated from Flp-In™ T-REx™ cells induced to express the receptor construct of interest with 100 ng/ml doxycycline. Nonspecific binding of the radioligand was determined in the presence of 10 μM compound 837. All assays were performed at 25 °C for 1 h before termination by the addition of ice-cold phosphate-buffered saline (PBS) and vacuum filtration through GF/C glassfibre filter-bottom 96-well microplates using a UniFilter FilterMate Harvester (Revvity). Each well was washed three times with ice-cold PBS and filters were allowed to dry for 2–3 h before addition of 50 μl of Ultima Gold™ XR. Radioactivity was quantified by liquid scintillation spectrometry.

Phe187Ala GPR84 = molecular target: T2, Phe187Ala GPR84 (Homo sapiens, UniProt Q9NQS5, F187A); assay: pThr263/pThr264 immunoblot of immunoprecipitated GPR84-eYFP; assay type: cell-based; details: 1 μM, compared to OX04954 and OX04539
T2 construct: expressed in transfected cells
Experimental: (§1) eYFP-linked receptor constructs were immunoprecipitated from 200 μl cell lysates using GFP-Trap® agarose beads (Proteintech) according to manufacturer’s instructions. Immunocomplexes were washed three times in washing buffer, resuspended in 100 μl 2 × SDS-PAGE sample buffer and incubated at 60 °C for 10 min. Following centrifugation at 2500g for 5 min, 20 μl of immunoprecipitated proteins was resolved by SDS-PAGE on 4% to 12% BisTris gels. After separation, the proteins were transferred electrophoretically onto nitrocellulose membrane, which was then blocked using 5% bovine serum albumin (BSA) in Tris-buffered saline (TBS, 50 mM Tris-Cl, 150 mM NaCl, pH 7.6) for 1 h at room temperature on an orbital shaker. The membrane was then incubated with appropriate primary antibody in 5% BSA in TBS supplemented with 0.1% Tween (TBS-T) overnight at 4 °C. Anti-pThr^263/pThr^264 antiserum was diluted 1:2000 and anti-GFP was diluted 1:10,000. Subsequently, the membrane was washed (3 × 10 min with TBS-T) and incubated for 2 h with anti-rabbit secondary antibody diluted 1:10,000 in 5% BSA in TBS-T. After washing (3 × 10 min with TBS-T), proteins were detected using an Odyssey imaging system (Licor) according to the manufacturer’s instructions.

Leu336Ala GPR84 = molecular target: T3, Leu336Ala GPR84 (Homo sapiens, UniProt Q9NQS5, L336A); assay: as above; assay type: cell-based; details: 1 μM
T3 construct: expressed in transfected cells
Experimental: as §1

EC50 (GPR84 Y332F) | Emax (GPR84 Y332F; HEK-293T) | Structure (SMILES) | Ki [1] | phosphorylation of Thr263 and Thr264 (immunoblot) (Phe187Ala GPR84) | phosphorylation of Thr263 and Thr264 (immunoblot) (Leu336Ala GPR84)
50.1 nM | 40 ± 4% | Cc1cc(CCCc2cc(O)c[n+]([O-])c2)ccc1Cl [OX04954] |  |  | 
 |  | [O-][n+]1cc(O)cc(CCc2ccc(Cl)c(C(F)(F)F)c2)c1 [OX04529] | 1.51 nM | partial effect | full agonist
